Each structure is given as a SMILES string. A value given as a limit tells only on which side of the number the result lay.

The subject of test [1] is HaCaT cells (EGFR expressing cell line). In words: HaCaT cell proliferation inhibitory activity (CellTiter-Glo, 72 hours). Format: cell-based. Particulars: Homo sapiens. As to the method:
(§1) To evaluate the cell proliferation inhibitory activity of the compound according to the present invention on HER2 and EGFR kinases, the following method was performed using HER2 overexpressing cell lines (SK-BR-3, BT-474, and N-87) and EGFR expressing cell line (HaCaT).
(§2) McCOY'S 5A supplemented with 10% FBS was used for SK-BR-3 cells, RPMI-1640 medium supplemented with 20% FBS was used for BT-474 cancer cells, and RPMI-1640 medium supplemented with 10% FBS was used for N-87 cancer cells. DMEM supplemented with 10% FBS was used for HaCaT cells.
(§3) For SK-BR-3 cells, 5000 cells were aliquoted into each well of a white clear bottom 96 well plate (Corning) 48 hours before treatment with the compounds of Examples. For BT-474 cells, 5000 cells were aliquoted into each well of a white clear bottom 96 well plate (Corning) 48 hours before treatment with the compounds of Examples. For N-87 cells, 5000 cells were aliquoted into each well of a white clear bottom 96 well plate (Corning) 24 hours before treatment with the compounds of Examples. For HaCaT cells, 3000 cells were aliquoted into each well of a white clear bottom 96 well plate (Corning) 24 hours before treatment with the compounds of Examples. For SK-BR-3 cells and BT-474 cells, the compounds of Examples were diluted in dimethyl sulfoxide (three-fold dilution, a total of 11 concentrations) and injected each in an amount of 1 μl to a final concentration of 0.2 nM to 10 μM. For N-87 cells, the compounds of Examples were diluted in dimethyl sulfoxide (five-fold dilution, a total of 11 concentrations) and injected each in an amount of 0.5 μl to a final concentration of […] to 5 μM. For HaCaT cells, the compounds of Examples were diluted in dimethyl sulfoxide (three-fold dilution, a total of 11 concentrations) and injected each in an amount of 0.5 μl to a final concentration of 0.8 nM to 45 μM. For the measurement of living cells, the cells were stored at room temperature for 10 minutes using CellTiter-Glo cell viability reagent (Promega) after a certain period of time (SK-BR-3: 120 hours, BT-474: 120 hours, N-87: 72 hours, and HaCaT: 72 hours) post treatment with the compounds of Examples, and the luminescence intensity thereof was measured using a reader (SynergyNeo, Biotek). Each test was repeated three times.
(§4) The result values were calculated as a cell growth rate (%) compared to those of the control group. A graph was created using the GraphPad Prism version 5.0 program, and GI50 values were calculated.
In general terms: In ATP-based viability assays light output follows the ATP content of the culture.

The test system of test [2] is SK-BR-3 cells (HER2 overexpressing cell line). In words: SK-BR-3 cell proliferation inhibitory activity (CellTiter-Glo, 120 hours). The class given is cell-based. Particulars: Homo sapiens. How it is done:
as §1, §2, §3, §4

Regarding `C=CC(=O)N1CCC(Oc2cc3c(Nc4cc(-c5ccco5)ccc4OC)ncnc3cc2OC)CC1C(F)(F)F` (centres unmarked) [Example 164, 1-(4-((4-((5-(furan-2-yl)-2-methoxyphenyl)amino)-7-methoxy-quinazolin-6-yl)oxy)-2-(trifluoromethyl)piperidin-1-yl)prop-2-en-1-one], the 50% growth inhibitory concentration (GI50) (in general, the concentration giving 50% growth inhibition) in test [1] is no more than 150 nM; in test [2], 150 to 1000 nM. Turning to `C=CC(=O)N1CCC(Oc2cc3c(Nc4cc(-c5ccco5)ccc4OC4CC4)ncnc3cc2OC)CC1` [Example 253, 1-(4-((4-((2-cyclopropoxy-5-(furan-2-yl)phenyl)amino)-7-methoxyquinazolin-6-yl)oxy)piperidin-1-yl)prop-2-en-1-one], the GI50 in test [1] and in test [2] was no more than 150 nM each time.

Turning to `COc1ccc(-c2cccs2)cc1Nc1ncnc2cc(OC)c(OC3CCN(C(=O)/C=C/CN(C)C)CC3)cc12` [Example 119, (E)-4-(dimethylamino) 1-(4-((7-methoxy-4-((2-methoxy-5-(thiophen-2-yl)phenyl)amino)quinazolin-6-yl)oxy)piperidin-1-yl)but-2-en-1-one], the values for the GI50 in test [1] and in test [2] were no more than 150 nM and 150 to 1000 nM, respectively.

As to `C=CC(=O)N1CCC(Oc2cc3c(Nc4cc(-c5ccco5)cnc4OC)ncnc3cc2OC)CC1` [Example 104, 1-(4-((4-((5-(furan-2-yl)-2-methoxy-pyridin-3-yl)amino)-7-methoxy-quinazolin-6-yl)oxy)piperidin-1-yl)prop-2-en-1-one], the 50% growth inhibitory concentration (GI50) in test [1] and in test [2] was no more than 150 nM throughout. On to `C=CC(=O)N1CCC(Oc2cc3c(Nc4cc(-c5cccc(F)c5F)ccc4OC)ncnc3cc2OC)CC1` [Example 137, 1-(4-((4-((2′,3′-difluoro-4-methoxy-[1,1′-biphenyl]-3-yl)amino)-7-methoxy-quinazolin-6-yl)oxy)piperidin-1-yl)prop-2-en-1-one], for which the GI50 in test [1] and in test [2] was no more than 150 nM each time. As for `C=CC(=O)N1CC(Oc2cc3c(Nc4cc(-c5cnc(Cl)c(F)c5)ccc4OC)ncnc3cc2OC)C1` [Example 27, 1-(3-((4-((5-(6-chloro-5-fluoropyridin-3-yl)-2-methoxyphenyl)amino)-7-methoxy-quinazolin-6-yl)oxy)azetidin-1-yl)prop-2-en-1-one], the 50% growth inhibitory concentration (GI50) in test [1] and in test [2] was 150 to 1000 nM each time. For `C=CC(=O)N1CCC(Oc2cc3c(Nc4cc(-c5cccnc5)ccc4OC)ncnc3cc2OC)C1` (centres unmarked) [Example 59, 1-(3-((7-methoxy-4-((2-methoxy-5-(pyridin-3-yl)phenyl)amino)quinazolin-6-yl)oxy)pyrrolidin-1-yl)prop-2-en-1-one], the values for the GI50 in test [1] and in test [2] were greater than 1000 nM and 150 to 1000 nM, respectively. Consider `C=CC(=O)N1CCC(Oc2cc3c(Nc4cc(-c5cccn6ccnc56)ccc4OC)ncnc3cc2OC)CC1` [Example 70, 1-(4-((4-((5-(imidazo[1,2-a]pyridin-8-yl)-2-methoxyphenyl)amino)-7-methoxy-quinazolin-6-yl)oxy)piperidin-1-yl)prop-2-en-1-one], for which the concentration for 50% growth inhibition (GI50) was greater than 1000 nM in test [1] and 150 to 1000 nM in test [2]. For `C=CC(=O)N1CC(Oc2cc3c(Nc4cc(-c5cccs5)ccc4OCC)ncnc3cc2OC)C1` [Example 54, 1-(3-((4-((2-ethoxy-5-(thiophen-2-yl)phenyl)amino)-7-methoxy-quinazolin-6-yl)oxy)azetidin-1-yl)prop-2-en-1-one] the same measures were no more than 150 nM and no more than 150 nM. In the case of `C=CC(=O)N1CCC(Oc2cc3c(Nc4cc(-c5cncs5)ccc4OC)ncnc3cc2OC)CC1` [Example 77, 1-(4-((7-methoxy-4-((2-methoxy-5-(thiazol-5-yl)phenyl)amino)quinazolin-6-yl)oxy)piperidin-1-yl)prop-2-en-1-one], the 50% growth inhibitory concentration (GI50) in test [1] and in test [2] was 150 to 1000 nM throughout. On to `C=CC(=O)N1CC[C@@H](Oc2cc3c(Nc4cc(-c5ccco5)ccc4OC)ncnc3cc2OC)[C@H](F)C1` (relative stereo) [Example 179, 1-(trans-3-fluoro-4-((4-((5-(furan-2-yl)-2-methoxyphenyl)amino)-7-methoxy-quinazolin-6-yl)oxy)piperidin-1-yl)prop-2-en-1-one], for which the 50% growth inhibitory concentration (GI50) in test [1] and in test [2] was no more than 150 nM throughout. As for `C=CC(=O)N1CC(Oc2cc3c(Nc4cc(-c5csc6ccccc56)ccc4OC)ncnc3cc2OC)C1` [Example 41, 1-(3-((4-((5-(benzo[b]thiophen-3-yl)-2-methoxyphenyl)amino)-7-methoxy-quinazolin-6-yl)oxy)azetidin-1-yl)prop-2-en-1-one], the 50% growth inhibitory concentration (GI50) in test [1] and in test [2] was no more than 150 nM throughout. Regarding `C=CC(=O)N1CC(Oc2cc3c(Nc4cc(-c5cc(F)cc(F)c5)ccc4OC)ncnc3cc2OC)C1` [Example 11, 1-(3-((4-((3′,5′-difluoro-4-methoxy-[1,1′-biphenyl]-3-yl)amino)-7-methoxy-quinazolin-6-yl)oxy)azetidin-1-yl)prop-2-en-1-one], the GI50 in test [1] is no more than 150 nM; in test [2] it was 150 to 1000 nM.

For the compound `C=CC(=O)N1CCC(Nc2cc3c(Nc4cc(-c5ccco5)ccc4OC)ncnc3cc2O[C@H]2CCOC2)CC1` [Example 279, (S)-1-(4-((4-((5-(furan-2-yl)-2-methoxyphenyl)amino)-7-((tetrahydrofuran-3-yl)oxy)quinazolin-6-yl)amino)piperidin-1-yl)prop-2-en-1-one], the GI50 in test [1] and in test [2] was no more than 150 nM each time.

As for `C=CC(=O)N1CC(Oc2cc3c(Nc4cc(-c5cccs5)ccc4OC4CCN(C)C4)ncnc3cc2OC)C1` (centres unmarked) [Example 240, 1-(3-((7-methoxy-4-((2-((1-methylpyrrolidin-3-yl)oxy)-5-(thiophen-2-yl)phenyl)amino)quinazolin-6-yl)oxy)azetidin-1-yl)prop-2-en-1-one], the 50% growth inhibitory concentration (GI50) in test [1] and in test [2] was no more than 150 nM throughout. Regarding `C=CC(=O)N1CC(Oc2cc3c(Nc4cc(-c5ccc6occc6c5)ccc4OC)ncnc3cc2OC)C1` [Example 37, 1-(3-((4-((5-(benzofuran-5-yl)-2-methoxyphenyl)amino)-7-methoxy-quinazolin-6-yl)oxy)azetidin-1-yl)prop-2-en-1-one], in test [2], the concentration for 50% growth inhibition (GI50) was no more than 150 nM. On the same count and under the same terms, for `C=CC(=O)N1CC(Oc2cc3c(Nc4cc(-c5ccnn5C)ccc4OC)ncnc3cc2OC)C1` [Example 42, 1-(3-((7-methoxy-4-((2-methoxy-5-(1-methyl-1H-pyrazol-5-yl)phenyl)amino)quinazolin-6-yl)oxy)azetidin-1-yl)prop-2-en-1-one] the value was 150 to 1000 nM; for `C=CC(=O)N1CCC(Oc2cc3c(Nc4cc(-c5ccccc5)ccc4OC)ncnc3cc2OC)C1` (centres unmarked) [Example 58, 1-(3-((7-methoxy-4-((4-methoxy-[1,1′-biphenyl]-3-yl)amino)quinazolin-6-yl)oxy)pyrrolidin-1-yl)prop-2-en-1-one], 150 to 1000 nM; for `C=CC(=O)N1CC(Oc2cc3c(Nc4cc(-c5cccs5)ccc4OC)ncnc3cc2OC)C1` [Example 43, 1-(3-((7-methoxy-4-((2-methoxy-5-(thiophen-2-yl)phenyl)amino)quinazolin-6-yl)oxy)azetidin-1-yl)prop-2-en-1-one], no more than 150 nM. For `C=CC(=O)N1CCC(Oc2cc3c(Nc4cc(-c5cccs5)ccc4OC)ncnc3cc2OC)C1` (centres unmarked) [Example 63, 1-(3-((7-methoxy-4-((2-methoxy-5-(thiophen-2-yl)phenyl)amino)quinazolin-6-yl)oxy)pyrrolidin-1-yl)prop-2-en-1-one], the GI50 in test [2] fell in the range of 150 to 1000 nM.

With `C=CC(=O)N1CCC(Oc2cc3c(Nc4cc(-c5ccoc5)ccc4OC)ncnc3cc2OC)CC1` [Example 81, 1-(4-((4-((5-(furan-3-yl)-2-methoxyphenyl)amino)-7-methoxy-quinazolin-6-yl)oxy)piperidin-1-yl)prop-2-en-1-one], in test [2], the 50% growth inhibitory concentration (GI50) was in the range of 150 to 1000 nM. With `C=CC(=O)N1CC(Oc2cc3c(Nc4cc(-c5ccn6ncnc6c5)ccc4OC)ncnc3cc2OC)C1` [Example 30, 1-(3-((4-((5-([1,2,4]triazolo [1,5-a]pyridin-7-yl)-2-methoxyphenyl)amino)-7-methoxy-quinazolin-6-yl)oxy)azetidin-1-yl)prop-2-en-1-one], the 50% growth inhibitory concentration (GI50) in test [2] is 150 to 1000 nM. For the compound `C=CC(=O)N1CC(Oc2cc3c(Nc4cc(-c5ccc(F)cc5)ccc4OC)ncnc3cc2OC)C1` [Example 7, 1-(3-((4-((4′-fluoro-4-methoxy-[1,1′-biphenyl]-3-yl)amino)-7-methoxy-quinazolin-6-yl)oxy)azetidin-1-yl)prop-2-en-1-one], the 50% growth inhibitory concentration (GI50) in test [2] was no more than 150 nM.

The values above are taken from patent publication US20240246940A1, “HETEROARYL DERIVATIVE COMPOUND AND USE THEREOF” (VORONOI INC., priority 2021, published 2024).
